# Patent US9238069B2, “Method of sensitizing cancer cells to the cytotoxic effects of death receptor ligands in cancer treatment” (The United States of America, as represented by the …, priority 2009, dated 2016)
# How the values were obtained:
# ACHN renal cancer cells = experiment: SRB dose-response assay for synergy with TRAIL (percent growth inhibition); assay type: cell-based; conditions: 4 h presensitization, TRAIL 20 ng/mL, FIG. 11
# Text: FIG. 11 depicts the dose-response curves for withanolide E and withanolide S in the presence of TRAIL. The y-axis represents percent growth inhibition for ACHN renal cancer cells. The lines labeled “−TRAIL” are the dose-response curves for withanolide E and withanolide S in the absence of TRAIL. The lines labeled “predicted +TRAIL” is the predicted additive percent growth inhibition resulting from addition of the growth inhibition due to withanolide E and withanolide S plus TRAIL. The lines labeled “Actual +TRAIL” is the actual percent growth inhibition determined by the assay.
# This Example illustrates another aspect of the assay. […] Controls were combined on each assay plate and included: SRB background absorbance (no cells), untreated (DMSO-only) cells, TRAIL-only cells, cytotoxicity positive control −TRAIL (sanguinarine hydrochloride; one concentration), and synergy positive control +TRAIL (bortezomib; one conconcentrion plus a dose-response range).
# Compound dilutions were prepared in clear test medium and added to cells. […] Dye was resolubilized by addition of 10 mM TRIZMA base solution (30 μL) and resuspended on a rotary shaker for a few minutes before reading the plates for absorbance at 520 nm using a Safire plate reader (Tecan Group Ltd., Männedorf, Switzerland). […]
# caspase-8 in ACHN cells = experiment: Western blot of caspase-8 cleavage after sensitizer plus TRAIL; assay type: cell-based; conditions: compound 10 μM, sensitized 4 h, then TRAIL 40 ng/mL, FIG. 5
# Experimental: This Example illustrates cleavage of caspase resulting from treatment of cells with anolides in combination with TRAIL. ACHN cells were seeded into 6-well tissue culture plates at […] cells/well in clear test medium and the next day compound was added to a final concentration of 10 μM. Cells were sensitized for 4 h followed by addition of TRAIL to 40 ng/mL final concentration. Cells were harvested in lysis buffer at short intervals after addition of the TRAIL reagent using 165 μL per well. Lysis buffer contained: 50 mM Tris-Cl (pH 8.0), 300 mM NaCl, 5 mM EDTA, 0.5% Triton X-100, 40 μM Z-VAD-FMK, plus one mini-complete protease inhibitor tablet (Roche, Mannheim, Germany) or 100 μL Halt Protease Inhibitor Single-Use Cocktail (Pierce Biotechnology, Inc., Rockford, Ill.) per 6 mL buffer. Lysates were clarified by centrifugation at 4° C. for 15 min at 15,000 rpm and protein content normalized using the bicinchonic acid (BCA) assay (Pierce Biotechnology, Inc.).
# Lysates were run under reducing conditions at 20 μg total protein per lane, in NuPAGE 4-12% Bis-Tris gels (1.0 mm×12 well; Invitrogen), using MESS DS running buffer and added antioxidant in the upper chamber. […]
# The Western blots determined using the above protocol for withanolide E is depicted in FIG. 5.
Substance,percent growth inhibition in combination with TRAIL versus sensitizer alone or TRAIL alone (synergistic response) (ACHN renal cancer cells),cleavage of caspase-8 (caspase-8 in ACHN cells)
withanolide E,substantially greater,resulted in the cleavage of caspase-8
withanolide S,substantially greater,
